Measurements from patent US9556169B2, “Compounds and compositions for the treatment of parasitic diseases” (NOVARTIS AG, priority 2012, dated 2017).
Where two headings read alike, the source gives them in different places.

Test system: P. falciparum (NF54 or 3D7 strain)
Experiment: P. falciparum proliferation assay in infected human blood cells (SYBR Green)
Type: cell-based
Settings: Plasmodium falciparum
Method: Assay for P. falciparum Proliferation in Infected Human Blood Cells
Compounds of the invention can be assayed to measure their capacity to inhibit proliferation of P. falciparum parasitemia in infected red blood cells. This parasite proliferation assay measures the increase in parasite DNA content using a DNA intercalating dye, SYBR Green® (INVITROGEN®) which has a high affinity for double stranded DNA.
NF54 or 3D7 P. falciparum strain is grown in complete culturing media until parasitemia reaches 3% to 8% with O+ human erythrocytes. […] 20 μl of screening media is dispensed into 384 well assay plates. 50 nl of compounds of the invention (in DMSO), including antimalarial controls (mefloquine, pyrimethamine and artemisinin), are then transferred into the assay plates, as well as DMSO alone to serve as a negative control for inhibition. Then 30 μl of a suspension of a NF54 or 3D7 P. falciparum infected erythrocytes in screening media is dispensed into the assay plates such that the final hematocrit is 2.5% with a final parasitemia of 0.3%. The plates are placed in a 37° C. incubator for 72 hours in a low oxygen environment containing 93% N2, 4% CO2, and 3% O2 gas mixture. 10 μl of lysis buffer (saponin, triton-X, EDTA) containing a 10× solution of SYBR Green I® in RPMI media is dispensed into the plates. The plates are lidded and kept at room temperature overnight for the lysis of the infected red blood cells. The fluorescence intensity is measured (excitation 425 nm, emission 530 nm) using the Envision™ system (Perkin Elmer). The percentage inhibition of 50%, EC50, is calculated for each compound.

[1] = read-out: EC50, P. falciparum Proliferation Assay
[2] = Erythrocyte, infected human erythrocytes, 72 hours, SYBR Green fluorescence, read-out: EC50 (nM), inhibitory efficacy in delaying P. falciparum proliferation in infected human blood cells

SMILES	EC50 [1] [nM]	EC50 [2] [nM]
CN(C(=O)c1ccn2ncc(-c3cnc4[nH]ccc4c3)c2c1)c1ccc(C#N)cc1 [Example 40, N-(4-cyanophenyl)-N-methyl-3-(1H-pyrrolo[2,3-b]pyridin-5-yl)pyrazolo[1,5-a]pyridine-5-carboxamide]	< 5	
CN(C(=O)c1ccn2ncc(-c3ccc(N)nc3)c2c1)c1ccc(C#N)cc1 [Example 41, 3-(6-aminopyridin-3-yl)-N-(4-cyanophenyl)-N-methylpyrazolo[1,5-a]pyridine-5-carboxamide]	< 5	
C[C@@H](N)C(=O)Nc1ccc(-c2cnn3ccc(C(=O)N(C)c4ccc(C#N)cc4)cc23)cc1 [Example 44, (R)-3-(4-(2-aminopropanamido)phenyl)-N-(4-cyanophenyl)-N-methylpyrazolo[1,5-a]pyridine-5-carboxamide]	< 5	
CN(C(=O)c1ccn2ncc(-c3cnc4[nH]ccc4c3)c2c1)c1ccc(C#N)cn1 [Example 53, N-(5-cyanopyridin-2-yl)-N-methyl-3-(1H-pyrrolo[2,3-b]pyridin-5-yl)pyrazolo[1,5-a]pyridine-5-carboxamide]	< 5	
CN(C(=O)c1ccn2ncc(-c3cnc(N)nc3)c2c1)c1ccc(C#N)cc1 [Example 83, 3-(2-aminopyrimidin-5-yl)-N-(4-cyanophenyl)-N-methylpyrazolo[1,5-a]pyridine-5-carboxamide]	< 5	
CN(C(=O)c1ccn2ncc(-c3ccc(C(=O)O)cc3)c2c1)c1ccc(C#N)cn1 [Example 101, 4-(5-((5-Cyanopyridin-2-yl)(methyl)carbamoyl)pyrazolo[1,5-a]pyridin-3-yl)benzoic acid]		6160
N#Cc1ccc(N(CCO)C(=O)c2ccn3ncc(-c4ccc(C(N)=O)cc4)c3c2)cc1 [Example 105, 3-(4-Carbamoylphenyl)-N-(4-cyanophenyl)-N-(2-hydroxyethyl)pyrazolo[1,5-a]pyridine-5-carboxamide]		935
CNC(=O)c1ccc(-c2cnn3ccc(C(=O)Nc4ccc(C#N)cn4)cc23)cc1 [Example 106, N-(5-Cyanopyridin-2-yl)-3-(4-(methylcarbamoyl)phenyl)pyrazolo[1,5-a]pyridine-5-carboxamide]		521
N#Cc1ccc(N(C(=O)c2ccn3ncc(-c4ccc(C(N)=O)cc4)c3c2)C2CC2)nc1 [Example 120, 3-(4-Carbamoylphenyl)-N-(5-cyanopyridin-2-yl)-N-cyclopropylpyrazolo[1,5-a]pyridine-5-carboxamide]		9
CC(C)NC(=O)c1ccc(-c2cnn3ccc(C(=O)N(c4ccc(C#N)cn4)C4CC4)cc23)cc1 [Example 121, N-(5-Cyanopyridin-2-yl)-N-cyclopropyl-3-(4-(isopropylcarbamoyl)phenyl)pyrazolo[1,5-a]pyridine-5-carboxamide]		1160
CNC(=O)c1ccc(-c2cnn3ccc(C(=O)N(C)c4ccc(OC)nc4)cc23)cc1 [Example 122, N-(6-Methoxypyridin-3-yl)-N-methyl-3-(4-(methylcarbamoyl)phenyl)pyrazolo[1,5-a]pyridine-5-carboxamide]		> 10000
N#Cc1ccc(N(C(=O)c2ccn3ncc(-c4ccc(C(=O)NC5CC5)cc4)c3c2)C2CC2)nc1 [Example 123, N-(5-Cyanopyridin-2-yl)-N-cyclopropyl-3-(4-(cyclopropylcarbamoyl)phenyl)pyrazolo[1,5a]pyridine-5-carboxamide]		393
CNC(=O)c1ccc(-c2cnn3ccc(C(=O)N(c4ccc(Cl)cn4)C4CC4)cc23)cc1 [Example 124, N-(5-Chloropyridin-2-yl)-N-cyclopropyl-3-(4-(methylcarbamoyl)phenyl)pyrazolo[1,5-a]pyridine-5-carboxamide]		19
CNC(=O)c1ccc(-c2cnn3ccc(C(=O)N(c4ccc(F)cn4)C4CC4)cc23)cc1 [Example 125, N-Cyclopropyl-N-(5-fluoropyridin-2-yl)-3-(4-(methylcarbamoyl)phenyl)pyrazolo[1,5a]pyridine-5-carboxamide]		80
